Reference: PubChem BioAssay AID248 (DTP/NCI, 2004)
Several values for one entry are separate records, joined by “and”; a condition that tells them apart may be missing. Identical values can stand only once. Toxic doses and inconclusive results are not listed. Cut-off read from the data, not from the text of the source: active = T/C of 150% or more; inactive = T/C below 125%.

Tested on: L1210 leukemia ip in BDF1 mice, survival T/C
Test: NCI In Vivo Anticancer Drug Screen. Data for tumor model L1210 Leukemia (intraperitoneal) in B6D2F1 (BDF1) mice
Details: endpoint: mean survival time, higher = longer survival
How it was run: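 Tumor cells were implanted, animals were treated, and survival was followed. The result divides the treated measurement by the vehicle-control measurement.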

[1] = dose: 12.5 mg/kg/injection, schedule: Q01DX009 (ip), vehicle: saline
[2] = dose: 25.0 mg/kg/injection, schedule: Q01DX009 (ip), vehicle: saline
[3] = dose: 100.0 mg/kg/injection, schedule: Q04DX002 (ip), vehicle: Klucel (hydroxypropylcellulose) (HPC)
[4] = dose: 200.0 mg/kg/injection, schedule: Q04DX002 (ip), vehicle: Klucel (hydroxypropylcellulose) (HPC)
[5] = dose: 100.0 mg/kg/injection, schedule: Q04DX003 (ip), vehicle: saline with Tween-80
[6] = dose: 200.0 mg/kg/injection, schedule: Q04DX003 (ip), vehicle: saline with Tween-80
[7] = dose: 100.0 mg/kg/injection, schedule: Q01DX009 (ip), vehicle: saline with Tween-80
[8] = dose: 100.0 mg/kg/injection, schedule: Q04DX002 (ip), vehicle: saline with Tween-80
[9] = dose: 200.0 mg/kg/injection, schedule: Q01DX009 (ip), vehicle: saline with Tween-80
[10] = dose: 200.0 mg/kg/injection, schedule: Q04DX002 (ip), vehicle: saline with Tween-80
[11] = dose: 400.0 mg/kg/injection, schedule: Q01DX009 (ip), vehicle: saline with Tween-80
[12] = dose: 400.0 mg/kg/injection, schedule: Q04DX002 (ip), vehicle: saline with Tween-80
[13] = dose: 25.0 mg/kg/injection, schedule: Q04DX003 (ip), vehicle: saline with Tween-80
[14] = dose: 50.0 mg/kg/injection, schedule: Q04DX003 (ip), vehicle: saline with Tween-80
[15] = dose: 50.0 mg/kg/injection, schedule: Q01DX001 (ip), vehicle: carboxymethylcellulose (CMC)
[16] = dose: 100.0 mg/kg/injection, schedule: Q01DX001 (ip), vehicle: carboxymethylcellulose (CMC)
[17] = dose: 200.0 mg/kg/injection, schedule: Q01DX001 (ip), vehicle: carboxymethylcellulose (CMC)
[18] = dose: 400.0 mg/kg/injection, schedule: Q01DX001 (ip), vehicle: carboxymethylcellulose (CMC)
[19] = dose: 400.0 mg/kg/injection, schedule: Q04DX002 (ip), vehicle: Klucel (hydroxypropylcellulose) (HPC)
[20] = dose: 100.0 mg/kg/injection, schedule: Q01DX001 (ip), vehicle: saline
[21] = dose: 200.0 mg/kg/injection, schedule: Q01DX001 (ip), vehicle: saline
[22] = dose: 400.0 mg/kg/injection, schedule: Q01DX001 (ip), vehicle: saline
[23] = dose: 100.0 mg/kg/injection, schedule: Q04DX003 (ip), vehicle: Klucel (hydroxypropylcellulose) (HPC)
[24] = dose: 50.0 mg/kg/injection, schedule: Q01DX001 (ip), vehicle: saline
[25] = dose: 100.0 mg/kg/injection, schedule: Q01DX009 (ip), vehicle: Klucel (hydroxypropylcellulose) (HPC)
[26] = dose: 200.0 mg/kg/injection, schedule: Q01DX009 (ip), vehicle: Klucel (hydroxypropylcellulose) (HPC)
[27] = dose: 200.0 mg/kg/injection, schedule: Q04DX003 (ip), vehicle: Klucel (hydroxypropylcellulose) (HPC)
[28] = dose: 400.0 mg/kg/injection, schedule: Q04DX003 (ip), vehicle: Klucel (hydroxypropylcellulose) (HPC)

Measured: T/C

CC(C)c1ccc(/C=N/NC(=O)C[n+]2ccccc2)cc1
inactive: [1] 100 % of control | [2] 105 % of control | dose: 50.0 mg/kg/injection, schedule: Q01DX009 (ip), vehicle: saline 94 % of control

CCOC(=O)CNc1ccc(Cl)cc1
inactive: dose: 25.0 mg/kg/injection, schedule: Q04DX002 (ip), vehicle: Klucel (hydroxypropylcellulose) (HPC) 98 % of control and 106 % of control | dose: 50.0 mg/kg/injection, schedule: Q04DX002 (ip), vehicle: Klucel (hydroxypropylcellulose) (HPC) 102 % of control | [3] 101 % of control and 91 % of control | [4] 102 % of control

CN(C)C=C1C(=O)c2ccccc2C1=O
inactive: [5] 105 % of control | [6] 107 % of control

COc1ccc(C=Nc2ccc3c(c2)OCO3)cc1Br
inactive: [7] 88 % of control | [8] 108 % of control | [9] 101 % of control | [10] 102 % of control | [11] 103 % of control | [12] 97 % of control

O=C(COc1ccc(Cl)cc1)C1CSc2ccc(Br)cc21 (stereo not given)
inactive: dose: 100.0 mg/kg/injection, schedule: Q04DX003 (ip), vehicle: saline sonified 89 % of control | dose: 200.0 mg/kg/injection, schedule: Q04DX003 (ip), vehicle: saline sonified 101 % of control | dose: 400.0 mg/kg/injection, schedule: Q04DX003 (ip), vehicle: saline sonified 92 % of control

O=C(COc1ccc(Cl)c(Cl)c1)N(Cc1ccccc1)Cc1ccc[n+](Cc2cccc(Cl)c2S(=O)(=O)F)c1
inactive: [13] 106 % of control | [14] 96 % of control

CCCCCCCCCCCCCCCCCBr
inactive: [15] 110 % of control | [16] 95 % of control | [17] 93 % of control | [18] 95 % of control

CCCN1C(=O)C=CC1=O
inactive: dose: 25.0 mg/kg/injection, schedule: Q01DX009 (ip), vehicle: saline with Tween-80 96 % of control | [13] 91 % of control | dose: 50.0 mg/kg/injection, schedule: Q01DX009 (ip), vehicle: saline with Tween-80 96 % of control | [14] 92 % of control | [7] 95 % of control | [5] 97 % of control

CN(C(=O)C(=O)N(C)S(=O)(=O)c1ccccc1)S(=O)(=O)c1ccccc1
inactive: dose: 100.0 mg/kg/injection, schedule: Q01DX001 (ip), vehicle: Klucel (hydroxypropylcellulose) (HPC) 101 % of control | dose: 200.0 mg/kg/injection, schedule: Q01DX001 (ip), vehicle: Klucel (hydroxypropylcellulose) (HPC) 97 % of control | dose: 400.0 mg/kg/injection, schedule: Q01DX001 (ip), vehicle: Klucel (hydroxypropylcellulose) (HPC) 90 % of control

ClC1(c2ccccc2)c2ccccc2C(Cl)(c2ccccc2)c2ccccc21 (stereo not given)
inactive: [8] 98 % of control | [10] 92 % of control | [12] 92 % of control

CCOC(=O)CNc1cccc(C)c1
inactive: [3] 100 % of control | [4] 110 % of control | [19] 107 % of control

NC(=O)c1ccnn1C1OC(CO)C(O)C1O (stereo not given)
inactive: dose: 50.0 mg/kg/injection, schedule: Q01DX005 (ip), vehicle: water 102 % of control | dose: 100.0 mg/kg/injection, schedule: Q01DX005 (ip), vehicle: water 102 % of control | dose: 200.0 mg/kg/injection, schedule: Q01DX005 (ip), vehicle: water 105 % of control

CC1CCCCN1Cc1ccccc1COC(=O)c1ccc([N+](=O)[O-])cc1 (stereo not given)
inactive: [3] 90 % of control | [4] 104 % of control | [19] 114 % of control

O=C(O)c1ccc([N+](=O)[O-])cc1P(=O)(O)O
inactive: dose: 75.0 mg/kg/injection, schedule: Q04DX003 (ip), vehicle: saline with Tween-80 103 % of control

COc1nc(Cl)nc(Cl)n1
inactive: dose: 6.0 mg/kg/injection, schedule: Q01DX Z (ip), vehicle: methylcellulose (MC) 89 % of control

O=C(Nc1ccc(S(=O)(=O)NC2CCCCC2)cc1)OC1CCCCCCC1
inactive: [20] 89 % of control | [21] 94 % of control | [22] 96 % of control

O=C(O)C#Cc1ccccc1
inactive: dose: 25.0 mg/kg/injection, schedule: Q04DX003 (ip), vehicle: Klucel (hydroxypropylcellulose) (HPC) 107 % of control | dose: 50.0 mg/kg/injection, schedule: Q04DX003 (ip), vehicle: Klucel (hydroxypropylcellulose) (HPC) 98 % of control | [20] 100 % of control | [23] 96 % of control

[O-][n+]1c2ccccc2nn1-c1ccccc1
inactive: [20] 95 % of control | [21] 96 % of control | [22] 97 % of control

O=[N+]([O-])c1ccc(P(=O)(O)O)cc1
inactive: [24] 103 % of control | [20] 101 % of control | [21] 107 % of control | [22] 115 % of control

CN(C)C(c1ccccc1)c1ccccc1
inactive: [24] 96 % of control | [20] 94 % of control | [21] 94 % of control | [22] 94 % of control

O=C(O)Cc1c[nH]c(=O)[nH]c1=O
inactive: [7] 97 % of control | [5] 102 % of control | [9] 103 % of control | [6] 103 % of control | [11] 101 % of control | dose: 400.0 mg/kg/injection, schedule: Q04DX003 (ip), vehicle: saline with Tween-80 92 % of control

CCOC(=O)C(C(=O)OCC)N(C(=O)C(Cl)Cl)c1ccccc1
inactive: dose: 100.0 mg/kg/injection, schedule: Q04DX003 (ip), vehicle: other 97 % of control | dose: 200.0 mg/kg/injection, schedule: Q04DX003 (ip), vehicle: other 96 % of control | dose: 400.0 mg/kg/injection, schedule: Q04DX003 (ip), vehicle: other 94 % of control

O=C(NC(=S)Nc1cccc(Cl)c1)c1ccccc1
inactive: [25] 106 % of control | [23] 95 % of control | [26] 113 % of control | [27] 92 % of control | [28] 95 % of control

Oc1ccccc1C(=NNc1ccccc1)c1ccccc1O
inactive: [16] 115 % of control | [17] 105 % of control | [18] 103 % of control

FC(F)(F)c1ccc2c(c1)N(CCCN1CCN(CCN3CCCCC3)CC1)c1ccccc1S2
inactive: [1] 93 % of control | dose: 12.5 mg/kg/injection, schedule: Q04DX003 (ip), vehicle: saline 94 % of control | [2] 86 % of control | dose: 25.0 mg/kg/injection, schedule: Q04DX003 (ip), vehicle: saline 96 % of control | dose: 50.0 mg/kg/injection, schedule: Q04DX003 (ip), vehicle: saline 92 % of control

CCCCCCCCCCCCC/C=N/Nc1nnc(N/N=C/CCCCCCCCCCCCC)c2ccccc12
inactive: [24] 106 % of control | [20] 106 % of control | [21] 109 % of control | [22] 118 % of control

O=C1c2ccccc2-c2c(Br)c3ccccc3c(=O)n21
inactive: [15] 91 % of control | [16] 89 % of control | [17] 91 % of control | [18] 94 % of control

O=C(NCCCl)Nc1ccc(O)cc1
inactive: dose: 100.0 mg/kg/injection, schedule: Q01DX009 (ip), vehicle: saline 101 % of control | [23] 98 % of control | dose: 200.0 mg/kg/injection, schedule: Q01DX009 (ip), vehicle: saline 105 % of control | [27] 94 % of control | dose: 400.0 mg/kg/injection, schedule: Q01DX009 (ip), vehicle: saline 90 % of control | [28] 100 % of control

Cc1c(Cl)cccc1NC(=O)Nc1ccccc1Cl
inactive: [25] 104 % of control | [23] 92 % of control | [26] 103 % of control | [27] 91 % of control | dose: 400.0 mg/kg/injection, schedule: Q01DX009 (ip), vehicle: Klucel (hydroxypropylcellulose) (HPC) 100 % of control | [28] 92 % of control

ClCc1ccccc1CCc1ccccc1CCl
inactive: [23] 105 % of control | [27] 94 % of control | [28] 105 % of control
